Read-outs that look alike come from different tables or passages of the source.
Legend:
[1] = Solubility of CHIR99021 diHCl in PBS with or without 17 wt % poloxamer 407, judged by eye and transmitted light microscopy; assay type: physicochemical; details: 17 wt % poloxamer 407 in 1×PBS versus 1×PBS alone; 25 mg/ml (supersaturated); pH approximately 7.5; stirred overnight at room temperature
Description: CHIR99021 diHCl was combined with either 1×PBS or 17 wt % poloxamer 407 in 1×PBS at a concentration of 25 mg/ml, which was supersaturated for both solutions. After stirring the mixtures overnight at room temperature, the pH of the PBS buffers was adjusted to a pH of approximately 7.5.

[2] = Solubility of CHIR99021 diHCl in Poloxamer P-407/water solutions under refrigeration; assay type: physicochemical; details: for solubility at 2 days: aqueous with cosolvent or surfactant or cyclodextrin, thermodynamic from solid, no DMSO or other additives, read-out: CHIR99021 diHCl Conc (solubility)
Description: CHIR99021 diHCl was combined with Poloxamer P-407 and water. Samples were prepared ice-cold and allowed to incubate in the refrigerator for 2 days with occasional vortexing.
The solubility results shown below in Table 1 for refrigeration conditions. The only components in the poloxamer solution in the samples were P-407 and water (no DMSO or any other additives). The 20% sample was a gel at room temperature and the 15% sample was syrup, while the 10% and 5% samples were more fluid.

**Q.** What does the source list for Cc1c[nH]c(-c2cnc(NCCNc3ccc(C#N)cn3)nc2-c2ccc(Cl)cc2Cl)n1 [CHIR99021 diHCl, 6-[[2-[[4-(2,4-Dichlorophenyl)-5-(5-methyl-1H-imidazol-2-yl)-2-pyrimidinyl]amino]ethyl]amino]-3-pyridinecarbonitrile]?
**A.** solubility as judged by eye and transmitted light microscopy [1]: appeared more soluble; solubility trend in P-407 solutions ([2]; 5% to 20% P-407 in water): improved solubility with increasing % poloxamer concentration; solubility at 2 days ([2]; 10% Poloxamer P-407 in water, 10% P-407 in water): 2.6 µg/mL; solubility at 2 days ([2]; 15% Poloxamer P-407 in water, 15% P-407 in water): 7.9 µg/mL; solubility at 2 days ([2]; 20% Poloxamer P-407 in water, 20% P-407 in water): 13.5 µg/mL

— patent US11033546B2, “Solubilized compositions for controlled proliferation of stem cells / generating inner ear hair cells using a GSK3 inhibitor: I” (Frequency Therapeutics, Inc., priority 2016, dated 2021)
